This experiment deals with jack bean urease (Canavalia ensiformis, UniProt P07374). Kind of experiment: biochemical. To be noted: for urease inhibitory activity in words: in vitro assay, authors' verbal grading. The procedure:
Reaction mixture comprising of 25μL of enzyme (jack bean urease) (1 unit/well) solution and 55 μL of phosphate buffers (4 mM) containing 100 mM urea were incubated with 5 μL of test compounds dissolved in methanol (0.5 mM concentration) at 30 °C for 15 min in 96-well plates. Urease activity was determined by measuring ammonia production using the indophenol method as described by Weather burn. Briefly, 45 μl each phenol reagent (1 % w/v phenol and 0.005 % w/v sodium nitroprussside) and 70 μL of alkali reagent(0.5 % w/v NaOH and 0.1 % active chloride NaOCl) were added to each well. The increasing absorbance at 630 nm was measured afther 50 min, using a microplate reader (Molecular Device, USA). All reactions were performed in triplicate in a final volume of 200 μL. The results (change in absorbance per min) were processed by using softMax Pro software (molecular Device, USA). The entire assays were performed at pH 6.8. Percentage inhibitions were calculated from the formula 100 − (ODtestwell/ODcontrol) × 100. Thiourea was used as the standard inhibitor of urease.

Each structure is given as a SMILES string. Entries after “also recorded” stand apart in the source; their conditions may differ. Where a name gives a salt, the structure may show the parent alone.

Chain of jack bean urease (P07374 whole entry, looked up): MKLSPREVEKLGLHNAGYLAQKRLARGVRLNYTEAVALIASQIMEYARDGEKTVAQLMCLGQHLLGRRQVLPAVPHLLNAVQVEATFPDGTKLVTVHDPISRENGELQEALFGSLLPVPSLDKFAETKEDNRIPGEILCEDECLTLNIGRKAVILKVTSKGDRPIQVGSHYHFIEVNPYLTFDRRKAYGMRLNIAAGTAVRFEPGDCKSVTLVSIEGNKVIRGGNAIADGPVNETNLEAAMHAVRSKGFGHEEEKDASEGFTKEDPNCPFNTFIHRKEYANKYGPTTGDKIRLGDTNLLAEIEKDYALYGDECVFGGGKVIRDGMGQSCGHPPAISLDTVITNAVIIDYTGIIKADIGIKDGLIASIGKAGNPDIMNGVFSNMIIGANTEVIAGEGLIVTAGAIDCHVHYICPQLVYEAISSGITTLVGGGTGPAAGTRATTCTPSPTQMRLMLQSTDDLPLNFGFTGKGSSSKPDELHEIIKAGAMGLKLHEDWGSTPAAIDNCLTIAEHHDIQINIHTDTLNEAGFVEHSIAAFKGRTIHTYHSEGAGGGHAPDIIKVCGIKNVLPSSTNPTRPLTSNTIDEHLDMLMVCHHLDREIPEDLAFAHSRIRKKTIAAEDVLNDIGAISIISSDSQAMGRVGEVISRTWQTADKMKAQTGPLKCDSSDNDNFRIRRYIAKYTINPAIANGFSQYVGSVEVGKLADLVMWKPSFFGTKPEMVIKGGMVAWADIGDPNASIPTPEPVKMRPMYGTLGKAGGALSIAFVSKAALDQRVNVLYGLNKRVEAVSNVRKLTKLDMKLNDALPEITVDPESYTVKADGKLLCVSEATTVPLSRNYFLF

`CC1(C)CC(=O)C(C(C2=C(O)CC(C)(C)CC2=O)c2ccc(O)cc2)=C(O)C1` [Compound 5k, 2-((2-Hydroxy-4,4-dimethyl-6-oxocyclohex-1-en-1-yl)(4-hydroxyphenyl)methyl)-5,5-dimethyl-3-oxocyclohex-1-enolate diethylaminium salt]: the IC50 stood at 43.8 ± 0.33 µM and the “urease inhibitory activity in words” value is given as “good urease inhibitory activity”.
Take `Cn1c(O)c(C(C2=C(O)CC(C)(C)CC2=O)c2ccccc2)c(=O)n(C)c1=O` (stereo not shown) [Compound 4m, 5-((2-Hydroxy-4,4-dimethyl-6-oxocyclohex-1-en-1-yl)(phenyl)methyl)-1,3-dimethyl-2,6-dioxo-1,2,3,6-tetrahydropyrimidin-4-olate diethylaminium salt]: the IC50 came out at 39.3 ± 0.79 µM.
In turn, `Cn1c(O)c(C(c2cccc(Br)c2)c2c(O)n(C)c(=O)n(C)c2=O)c(=O)n(C)c1=O` [Compound 4e, 5,5′-((3-Bromophenyl)methylene)bis(1,3-dimethylpyrimidine-2,4,6(1H,3H,5H)-trione) diethylaminium salt] had an IC50 of 27.5 ± 0.12 µM.
`Cc1ccc(C(c2c(O)[nH]c(=O)[nH]c2=O)c2c(O)[nH]c(=O)[nH]c2=O)cc1` [Compound 4i, 5,5′-(p-Tolylmethylene)bis(6-hydroxypyrimidine-2,4(1H,3H)-dione) diethylaminium salt]: the IC50 came out at 17.6 ± 0.23 µM and the “urease inhibitory activity in words” value was “most active”.
In the same order, the values of `CC1(C)CC(=O)C(C(C2=C(O)CC(C)(C)CC2=O)c2ccc([N+](=O)[O-])cc2)=C(O)C1` [Compound 5f, 2-((2-Hydroxy-4,4-dimethyl-6-oxocyclohex-1-en-1-yl)(4-nitrophenyl)methyl)-5,5-dimethyl-3-oxocyclohex-1-enolate diethylaminium salt] are 106 ± 1.49 µM and “inactivity”.
As to `COc1ccc(C(c2c(O)[nH]c(=O)[nH]c2=O)c2c(O)[nH]c(=O)[nH]c2=O)cc1` [Compound 4k, 5,5′-((4-Methoxyphenyl)methylene)bis(6-hydroxypyrimidine-2,4(1H,3H)-dione) diethylaminium salt], the IC50 was 25.8 ± 0.23 µM.
The compound `CC1(C)CC(=O)C(C(C2=C(O)CC(C)(C)CC2=O)c2ccc(Cl)cc2)=C(O)C1` [Compound 5b, 2-((4-Chlorophenyl)(2-hydroxy-4,4-dimethyl-6-oxocyclohex-1-en-1-yl)methyl)-5,5-dimethyl-3-oxocyclohex-1-enolate diethylaminium salt] showed an IC50 of 29.7 ± 0.67 µM.
Still for that read-out and setting: with `Cn1c(O)c(C(c2ccc([N+](=O)[O-])cc2)c2c(O)n(C)c(=O)n(C)c2=O)c(=O)n(C)c1=O` [Compound 4c, 5,5′-((4-Nitrophenyl)methylene)bis(1,3-dimethylpyrimidine-2,4,6(1H,3H,5H)-trione)diethylaminium salt] the figure was 54.2 ± 0.47 µM.
`CC1(C)CC(=O)C(C(C2=C(O)CC(C)(C)CC2=O)c2c(Cl)cccc2Cl)=C(O)C1` [Compound 5g, 2-((2,6-Dichlorophenyl)(2-hydroxy-4,4-dimethyl-6-oxocyclohex-1-en-1-yl)methyl)-5,5-dimethyl-3-oxocyclohex-1-enolate diethylaminium salt]: inhibition was half-maximal at 170.7 ± 1.55 µM (IC50) and the “urease inhibitory activity in words” value is “least active; also recorded: inactivity”.
With `Cc1ccc(C(C2=C(O)CC(C)(C)CC2=O)c2c(O)n(C)c(=O)n(C)c2=O)cc1` (stereo not shown) [Compound 4n, 5-((2-Hydroxy-4,4-dimethyl-6-oxocyclohex-1-en-1-yl)(p-tolyl)methyl)-1,3-dimethyl-2,6-dioxo-1,2,3,6-tetrahydropyrimidin-4-olate diethylaminium salt], the IC50 came out at 41.2 ± 0.58 µM.
Take `Cn1c(O)c(C(C2=C(O)CC(C)(C)CC2=O)c2ccc(Cl)cc2Cl)c(=O)n(C)c1=O` (stereo not shown) [Compound 4w, 5-((2,4-Dichlorophenyl)(2-hydroxy-4,4-dimethyl-6-oxocyclohex-1-en-1-yl)methyl)-1,3-dimethyl-2,6-dioxo-1,2,3,6-tetrahydropyrimidin-4-olate diethylaminium salt]: the midpoint of inhibition, the IC50, lay at 59.4 ± 0.98 µM.
Same read-out and setting: to `CC1(C)CC(=O)C(C(C2=C(O)CC(C)(C)CC2=O)c2ccccc2)=C(O)C1` [Compound 5a, 2-((2-Hydroxy-4,4-dimethyl-6-oxocyclohex-1-en-1-yl)(phenyl)methyl)-5,5-dimethyl-3-oxocyclohex-1-enolate diethylaminium salt] belongs 74.5 ± 0.88 µM; to `O=c1[nH]c(O)c(C(c2ccc3ccccc3c2)c2c(O)[nH]c(=O)[nH]c2=O)c(=O)[nH]1` [Compound 4l, 5,5′-(Naphthalen-2-ylmethylene)bis(6-hydroxypyrimidine-2,4(1H,3H)-dione) diethylaminium salt], 22.7 ± 0.2 µM.
Regarding `Cn1c(O)c(C(C2=C(O)CC(C)(C)CC2=O)c2ccc(O)cc2)c(=O)n(C)c1=O` (stereo not shown) [Compound 4v, 5-((2-Hydroxy-4,4-dimethyl-6-oxocyclohex-1-en-1-yl)(4-hydroxyphenyl)methyl)-1,3-dimethyl-2,6-dioxo-1,2,3,6-tetrahydropyrimidin-4-olate diethylaminium salt], the IC50 came out at 52.2 ± 1.26 µM.
`Cn1c(O)c(C(C2=C(O)CC(C)(C)CC2=O)c2ccc(Cl)cc2)c(=O)n(C)c1=O` (stereo not shown) [Compound 4p, 5-((4-Chlorophenyl)(2-hydroxy-4,4-dimethyl-6-oxocyclohex-1-en-1-yl)methyl)-1,3-dimethyl-2,6-dioxo-1,2,3,6-tetrahydropyrimidin-4-olate diethylaminium salt]: the IC50 amounted to 39.7 ± 0.7 µM.
The compound `Cc1ccc(C(c2c(O)n(C)c(=O)n(C)c2=O)c2c(O)n(C)c(=O)n(C)c2=O)cc1` [Compound 4g, 5,5′-(p-Tolylmethylene)bis(1,3-dimethylpyrimidine-2,4,6(1H,3H,5H)-trione) diethylaminium salt] yielded an IC50 of 28.5 ± 0.41 µM.
Take `COc1ccc(C(C2=C(O)CC(C)(C)CC2=O)C2=C(O)CC(C)(C)CC2=O)cc1` [Compound 5e, 2-((2-Hydroxy-4,4-dimethyl-6-oxocyclohex-1-en-1-yl)(4-methoxyphenyl)methyl)-5,5-dimethyl-3-oxocyclohex-1-enolate diethylaminium salt]: the IC50 came out at 39.8 ± 0.75 µM.
Still for that read-out and setting: with `Cn1c(O)c(C(C2=C(O)CC(C)(C)CC2=O)c2ccc(C=O)cc2)c(=O)n(C)c1=O` (stereo not shown) [Compound 4x, 4-((6-hydroxy-1,3-dimethyl-2,4-dioxo-1,2,3,4-tetrahydropyrimidin-5-yl)(2-hydroxy-4,4-dimethyl-6-oxocyclohex-1-en-1-yl)methyl)benzaldehyde diethylaminium salt] the figure was 38.5 ± 0.28 µM.

One may read the IC50 as the concentration that gives 50% inhibition.

These data come from article PMC4648982 (Chemistry Central Journal, 2015).
